This is an account of results in patent publication US20200206198A1, “CFTR CHANNEL ACTIVATOR FOR USE IN THE TREATMENT AND/OR PREVENTION OF GLUTEN SENSITIVITY CONDITIONS” (priority 2017, published 2020).

The term IC50 denotes the concentration needed to halve the response being measured. Read a high IC50 as a need for much substance.

Experiment [1] deals with rhNBD1 ATP binding site. As to the kind of experiment: Intrinsic tryptophan (W401) fluorescence of NBD1. Also on record: species or system human. The note with it: preincubation of rhNBD1 with peptide. Here is the method:
To assess the capability of P31-43 peptide to bind NBD1 domain and modify its ATP binding site the intrinsic Tryptophan fluorescence of NBD1 was measured. Experiments were performed in a 0.2 ml fluorimeter cuvette at 25° C. using Varian Cary Eclipse fluorescence spectrophotometer. NBD1 protein was diluted to 1 μM in a buffer containing 50 mM Tris/HCl (pH 7.6), 150 mM NaCl, and 5 mM MgCl2, supplemented with 2 mM ATP and P31-43 5 μM when indicated. All spectra were corrected for buffer fluorescence. Excitation wavelength was adjusted to 292 nm and emission was scanned over the range 300-500 nm.

Experiment [2] addresses NBD1 ATPase activity. As to the kind of experiment: NBD1 ATPase activity (malachite green kit). The class given is biochemical, human. Here is the method:
The measurement of NBD1 ATPase activity was performed with a malachite green based kit supplied by Sigma (cod. MAK113) in accordance with the manufacturer's instructions. The enzyme activity was measured at 620 nm at room temperature using a Multiskan 96 well plates reader.

Experiment [3] relates to PBMC collected from celiac patients. Briefly: Bidimensional co-culture of Caco-2 cells and PBMC from celiac patients. The experiment is classed as cell-based, human. As for the experimental part:
To translate our findings into the relevant clinical setting, we determined whether CFTR potentiators would prevent the HLA-restricted immune response to gliadin by peripheral blood mononuclear cells (PBMC) collected from celiac patients. PBMC collected from 6 celiac patients and 4 healthy controls, were cultured in the lower compartment of a bidimensional co-culture model in which confluent Caco-2 cells were placed in the upper compartment. Then, Caco-2 cells were challenged with PT gliadin or with a combination of P31-43 and P57-68 (or P57-68 alone as a negative control), as described, and IFN-γ and IL-10 were quantified in the supernatants from the lower compartment.
Five ml of peripheral blood have been withdrawn from 8 untreated celiac patients (females and males, age range 8-25 years) and from 3 DQ2+ positive not CD affected controls (healthy first-grade relatives of celiac patients). The Ethics Committee of ISS approved the protocol (# CE/12/341), and patients or patients' parents signed the informed consent. Peripheral blood mononuclear cells were isolated using lympholite (Cederlane, UK) density gradient overlaid by heparin blood diluted 1:1 in PBS and centrifuged (20 min at 900 rpm). After being washed three times, PBMCs were resuspended in complete RPMI 1640 supplemented with 25 mM HEPES, 10% (v/v) heat-inactivated FBS, 100 U/ml penicillin, […] streptomycin, and 1% 2 mM 1-glutamine.
For transwell experiments using polarized Caco-2 cells, 3 weeks prior to the experiment, Caco-2 cells were seeded at a density of 80×10^3 cells×cm^2 on 0.4-μm, 1-cm^2 tissue culture inserts (Costar, Corning Incorporated). Transwell cultures (12-well) with confluent Caco-2 monolayers were used for co-culture with 1 ml PBMC (1.5×10^6 cells/ml) using PBMC medium and kept in an incubator at 37° C. and 5% CO2. Cells were allowed to settle for 1 h before the starting of the experiment. The permeability of the epithelial monolayer was assessed just before the experiments, measuring the transwell electrical resistance between the upper and lower compartments. […]

Sequence of rhNBD1 ATP binding site (P13569 389-646 limits assumed): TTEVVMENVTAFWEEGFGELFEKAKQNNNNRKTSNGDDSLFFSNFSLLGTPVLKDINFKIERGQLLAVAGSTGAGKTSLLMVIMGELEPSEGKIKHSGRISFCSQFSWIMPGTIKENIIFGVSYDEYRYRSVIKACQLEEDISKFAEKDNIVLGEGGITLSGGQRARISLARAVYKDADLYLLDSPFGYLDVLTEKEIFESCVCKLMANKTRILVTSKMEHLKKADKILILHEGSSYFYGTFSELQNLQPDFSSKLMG

For the compound “α-gliadin peptide LGQQQPFPPQQPY (SEQ ID 1), induces an enterocyte stress response (P31-43 sequence of alpha-gliadin)”, the “effect on ATP quenching of W401 fluorescence” value in experiment [1] is recorded as “quenching effect of ATP on W401 fluorescence was reduced”. The IC50 in experiment [2] was ~50 µM.
Turning to `CC(C)(C)c1cc(C(C)(C)C)c(NC(=O)c2c[nH]c3ccccc3c2=O)cc1O` [VX-770, N-(2,4-di-tert-butyl-5-hydroxyphenyl)-4-oxo-1,4-dihydroquinoline-3-carboxamide], the “effect on IFN-γ production induced by the combination of peptides” value in experiment [3] (celiac PBMC / Caco-2 co-culture) is “prevented the production of IFN-γ”. For the same compound, in experiment [3] (celiac PBMC / Caco-2 co-culture, p<0.01), the IL-10 levels entry is listed as “restored IL-10 levels”. Moreover, the “effect on IL-15 accumulation in the lower compartment” value in experiment [3] (p<0.001 vs peptide combination) was “prevented”.
